Assay results published in PubChem BioAssay (NCI).
Several values for one entry are separate records, joined by “and”; a condition that tells them apart may be missing. Equal values may be shown once.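 How tested: cells in 96-well plates exposed to compound for 48 hours at five concentrations. GI50 marks 50% less growth. TGI: total growth inhibition.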

Experiments:
Assay in all cases: NCI tumour cell line growth inhibition, 48 h
COLO 205 colon = test system: COLO 205 colon
DMS 114 small cell lung = test system: DMS 114 small cell lung
HCC-2998 colon = test system: HCC-2998 colon
HL-60(TB) leukemia = test system: HL-60(TB) leukemia
HS 578T breast = test system: HS 578T breast
KM20L2 colon = test system: KM20L2 colon
M19-MEL melanoma = test system: M19-MEL melanoma
MDA-MB-435 = test system: MDA-MB-435
OVCAR-5 ovarian = test system: OVCAR-5 ovarian
OVCAR-8 ovarian = test system: OVCAR-8 ovarian
PC-3 prostate = test system: PC-3 prostate
SK-OV-3 ovarian = test system: SK-OV-3 ovarian
SR leukemia = test system: SR leukemia
SW-620 colon = test system: SW-620 colon
UACC-257 melanoma = test system: UACC-257 melanoma
UO-31 renal = test system: UO-31 renal

`COc1ccc2c(c1)c1c(C)c3cnccc3c(C)c1n2CCCN` was tested, and the GI50 (COLO 205 colon) was 82.2 nM, the TGI (COLO 205 colon) was 751 nM and 259 nM and the TGI (DMS 114 small cell lung) was 669 nM. For the same compound, the GI50 (HCC-2998 colon) was 75.3 nM, the TGI (HCC-2998 colon) was 1200 nM and 225 nM and the GI50 (HL-60(TB) leukemia) was 450 nM and 238 nM. The TGI (HL-60(TB) leukemia) was 977 nM and 1020 nM, the TGI (HS 578T breast) was 953 nM and the TGI (KM20L2 colon) was 685 nM. For the same compound, the TGI (M19-MEL melanoma) was 633 nM, the TGI (MDA-MB-435) was 190 nM and the GI50 (OVCAR-5 ovarian) was 94.6 nM. The TGI (OVCAR-5 ovarian) was 1120 nM and 542 nM, the GI50 (OVCAR-8 ovarian) was 105 nM and the TGI (OVCAR-8 ovarian) was 741 nM and 892 nM. The TGI (PC-3 prostate) was 302 nM, the GI50 (SK-OV-3 ovarian) was 202 nM and the TGI (SK-OV-3 ovarian) was 1140 nM and 713 nM. For the same compound, the TGI (SR leukemia) was 118 nM, the GI50 (SW-620 colon) was less than 10 nM and the TGI (SW-620 colon) was 584 nM and 602 nM. For the same compound, the TGI (UACC-257 melanoma) was 1000 nM and 1690 nM, the GI50 (UO-31 renal) was 12.5 nM and the TGI (UO-31 renal) was 1360 nM and 168 nM.
